{"source": "patent US12636284B2", "about": "“Compositions for use in the prevention and/or treatment of intellectual disability and neurodegenerative diseases in a subject with down syndrome” (UNIVERSITA' DEGLI STUDI DI ROMA “LA SAPIENZA”, priority 2021, dated 2026)", "type_in_all_cases": "in vivo, mouse", "key": {"DYRK1A protein": {"test_system": "DYRK1A protein", "test": "Western blot of DYRK1A protein levels in hippocampus", "conditions": "hippocampus of Ts2Cje mice, 21 days intranasal treatment", "method": "Finally, animals were sacrificed using cervical dislocation. […] For Western blots, 20 μg of proteins from the hippocampus of mice belonging to the four experimental groups were separated by 4-15% SDS-PAGE CriterionTM […] (Bio-rad, Hercules, CAUSE). […] Therefore, the gel, once the image has been acquired, represents the total of the loaded proteins (Total Load), which will then be used to normalize the specific proteins to be examined. After electrophoresis and gel imaging, proteins are transferred via the semi-dry TransBlot Turbo apparatus (Bio-Rad Laboratories) onto nitrocellulose membranes (Bio-Rad, Hercules, CA, USA). Nitrocellulose membranes are blocked with 3% bovine serum albumin (BSA) in a solution of Tween 20-TBS and incubated overnight at 4° C. using specific primary antibodies: p([…])-GSK3B (1:1000, Santa Cruz, #sc-135653), p(S9)-GSK3β (1:1000, Cell Signaling, #5558S), GSK3β (1:1000 Abcam, #93926) and DYRK1A (1:1000, Cell Signaling, #8765S), MAPK44/42 (1:1000, Cell Signaling, #9102), p[…])-MAPK44/42 (1 1000, Cell Signaling, #9101), Akt (1:2000, Bio-Rad, # vma00253K), p(S473) Akt (1:1000, Cell Signaling, #4060S). After three washes with a T-TBS buffer solution, membranes were incubated for 1 hour at room temperature with the secondary antibodies. […] Finally, the results obtained were analyzed using the ImageLab program (Bio-rad, Hercules, CA, USA)."}, "β-amyloid peptide 1-42": {"test_system": "β-amyloid peptide 1-42", "test": "ELISA Aβ 1-42 in hippocampus", "method": "The 3x-Tg mouse, an animal model commonly used for the study of Alzheimer's disease (n=2/group), was used as a positive control for the production of β-amyloid 1-42. Briefly, ˜10 mg of hippocampus was homogenized in DEA buffer (10 μL/mg tissue; 0.2% diethanolamine and 50 mM NaCl) to which the protease inhibitor cocktail (1:100; Millipore) was added. The sample was centrifuged at 15,000 rpm for 1 hour 30 min at 4° C., the supernatant was stored for measuring ß-amyloid 1-42 following the instructions given by the kit manufacturer. The calculations for the quantization of β-amyloid were carried out using GraphPad Prism 8.0 software (GraphPad, La Jolla, CA, USA)."}, "GSK3b protein": {"test_system": "GSK3b protein", "test": "Western blot of GSK3b activation (pS9/pT216) in hippocampus", "conditions": "brains (hippocampus) of Ts2Cje mice", "method": "For the duration of the treatment, the mice were weighed weekly in order to assess any weight changes. After 21 days of treatment, the animals underwent a behavioral test to assess their memory and learning abilities. After the behavioral test, metabolic parameters such as blood glucose (both fasting and under the glycemic curve), body surface area (BSA) and body mass index (BMI) were assessed. Finally, animals were sacrificed using cervical dislocation. The brain and peripheral areas were isolated and collected in liquid nitrogen and subsequently stored at −80° C. until they were used for biochemical analyzes.\nTotal protein extracts were prepared from the frontal cortex for human autopsy samples and from the hippocampus for mouse samples, using RIPA solution (pH 7.4) containing TrisHCl (50 mM, pH 7.4), NaCl (150 mM), 1% NP-40, 0.25% sodium deoxycholate, ethylenediamine tetracetic acid (EDTA) (1 mM), and 0.1% sodium dodecyl sulfate (SDS). […] For the rest of the experiments, protein extracts were supplemented with cocktails of protease and phosphatase inhibitors (Sigma Aldrich, St Louis, MO, USA). Brain tissues were homogenized in the solution described above by sonication, and centrifuged at 14,000 rpm for 30 min at 4° C. The supernatant was used to determine total protein concentration by means of the bicinchoninic acid assay (BCA, Pierce, Rockford, IL). […]"}, "[1]": {"test_system": "GABAergic transmission in Ts2Cje mice", "test": "Patch-clamp electrophysiology, CA1 neurons of hippocampal sections, Ts2Cje mice", "conditions": "Ts2Cje mice (Ts+S) vs vehicle-treated Ts2Cje, after 21 days intranasal treatment", "from_the_text": "The brain sections containing the hippocampus were obtained from mice belonging to the four experimental groups (Eu Veh, Eu SITA, Ts2 Veh and Ts2 SITA) at 9 months of age after being euthanized by an overdose of isofluorane. Brains were quickly removed and placed in an ice-cold cutting solution containing the following (in mM): 124 NaCl, 3.2 KCl, 1 NaH2PO4, 2 MgCl2, 1 CaCl2), 26 NaHCO3, 10 glucose, 2 Na-pyruvate and 0.6 ascorbic acid, pH 7.4, 95% O2/5% CO2. The brain sections containing the hippocampus ([…]) were cut using a vibratome (VT1000S; Leica Microsystems) and immediately transferred to an incubation chamber filled with ACSF containing the following (in mM): 124 NaCl, 3.2 KCl, 1 NaH2PO4, 1 MgCl2, 2 CaCl2, 26 NaHCO3 and 10 glucose, pH 7.4, 95% O2/5% CO2. Brain sections were allowed to recover at 32° C. for 1 hour before being equilibrated to room temperature. For electrophysiological recordings, brain sections were transferred to a recording chamber constantly perfused with heated ACSF (32° C.) and bubbled with 95% O2/5% CO2. Subsequently, the slices were used for electrophysiological recordings. All electrophysiological recordings were performed using the patch-clamp technique in the whole-cell configuration. […] Membrane capacity and resistance were assessed in the same neurons. […]"}, "gephyrin and GABAA-R": {"test_system": "gephyrin and GABAA-R", "test": "Immunofluorescence of gephyrin and GABAA-R co-localization in hippocampus CA3 and CA1", "conditions": "Ts2Cje mice, confocal microscopy", "description": "Brains were placed in 4% paraformaldehyde for 24 hours. Brains were then fixed over the subsequent 48 hours in a 20% sucrose solution. Brain sections were then cut to a thickness of 15 μm using a cryostat (Leica System) and stored in an aqueous solution of PBS containing 0.02% NaN3 at 4° C. until use. Slices thus obtained were mounted on slides and were blocked and permeabilized by blocking solution (10% of normal goat serum and 0.2% Triton X-100 in TBS) for 2 hours.\nThe following day, the same slices were incubated with a mix of fluorescent secondary antibodies, to evaluate the co-localization of the two proteins, anti-mouse Alexa Fluor 488 nm for gephyrin and anti-rabbit Alexa Fluor 594 nm for GABA α2 (1:1500, Invitrogen, Carlsbad, California, CA, USA) for 2 hours at room temperature. The slices were then washed again and incubated with DAPI nuclear marker (1:10000, Invitrogen, Carlsbad, California, CA, USA). To subtract the non-specific background signal created by the secondary antibody, some sections were incubated only with the secondary antibody. Finally, the sample was sealed with a cover slip via fluorimount (Sigma-Aldrich, St Louis, MO, USA). The acquisition and analysis of brain sections was carried out using Leica TCS SP5× confocal microscopy and ImageJ analysis software."}}}
{"smiles": "N[C@@H](CC(=O)N1CCn2c(nnc2C(F)(F)F)C1)Cc1cc(F)c(F)cc1F", "note": "[sitagliptin, (R)-4-oxo-4-[3-(trifluoromethyl)-5,6-dihydro[1,2,4]triazole[4,3-a]pyrazin-7(8H)-yl]-1-(2,4,5-trifluorophenyl)butan-2-amine]", "values": [{"measurement": "expression levels of the DYRK1A protein", "setting": "DYRK1A protein", "value": "significant reduction"}, {"measurement": "Ab (beta-amyloid 1-42) levels", "setting": "β-amyloid peptide 1-42", "value": "reduction"}, {"measurement": "activation of the GSK3b protein", "setting": "GSK3b protein", "value": "increased activation"}, {"measurement": "spontaneous release rate of the neurotransmitter, CA1 hippocampal neurons", "setting": "[1]", "value": "completely reverts the increase in the spontaneous release rate of the neurotransmitter"}, {"measurement": "clusters of gephyrin and GABAA-R at the synaptic level", "setting": "gephyrin and GABAA-R", "value": "reduction of the clusters of gephyrin and GABAA-R"}]}
